The assay has as its system T. cruzi Tulahuen strain C2C4. Briefly: Activity against T. cruzi (beta-galactosidase expressing parasites in L-6 cells). The assay is classed as cell-based, Trypanosoma cruzi. The note with it: for IC50: Trypanosoma cruzi, TULAHUEN
How it is done: Activity against T. cruzi. Rat skeletal myoblasts (L-6 cells) were seeded in 96-well microtitre plates at 2000 cells/well in 100 μL RPMI 1640 medium with 10% FBS and 2 mM 1-glutamine. After 24 h the medium was removed and replaced by 100 μl per well containing 5000 trypomastigote forms of T. cruzi Tulahuen strain C2C4 containing the […] (Lac Z) gene (Buckner et al. 1996). After 48 h the medium was removed from the wells and replaced by 100 μl fresh medium with or without a serial drug dilution of eleven 3-fold dilution steps covering a range from 100 to 0.002 μg/ml. After 96 h of incubation the plates were inspected under an inverted microscope to assure growth of the controls and sterility. Then the substrate CPRG/Nonidet (50 μl) was added to all wells. A color reaction developed within 2-6 h and could be read photometrically at 540 nm. Data were analyzed with the graphic programme Softmax Pro (Molecular Devices), which calculated IC50 values by linear regression (Huber 1993) from the sigmoidal dose inhibition curves. Benznidazole is used as control (IC50 0.5±0.2 ug/ml). • Buckner, F. S., C. L. Verlinde, A. C. La Flamme, and W. C. Van Voorhis. 1996. Efficient technique for screening drugs for activity against Trypanosoma cruzi using parasites expressing beta-galactosidase, p. 2592-2597, vol. 40. • Huber, W. Koella, J. C. 1993. A comparison of the three methods of estimating EC50 in studies of drug resistance of malaria parasites. Acta Trop. 55, 257-261.

Setting [1] is: L6, in Rattus norvegicus, 96 h, trypomastigotes in rat skeletal myoblasts (L-6 cells), 96 h incubation, CPRG/Nonidet read at 540 nm, read-out: Activity (IC50).
The mark [2] stands for this setting: trypomastigotes in rat skeletal myoblasts (L-6 cells), 96 h incubation, CPRG/Nonidet read at 540 nm.

Converted amounts (≈) assume the structure as drawn. Read-outs that look alike come from different tables or passages of the source.

The record followed here is patent US20170114029A1, “TREATMENT OF CHAGAS DISEASE” (UNIVERSITY OF DUNDEE, priority 2014, published 2017).

Regarding `Cc1noc(C)c1-c1ccc2[nH]c(=O)n(CCC3CCCCC3)c(=O)c2c1` [Example 16c, 3-(2-Cyclohexylethyl)-6-(3,5-dimethylisoxazol-4-yl)quinazoline-2,4(1H,3H)-dione], the concentration for half-maximal inhibition (IC50) under setting [1] came to 11.5 µg/mL (≈ 31.3 µM).
As to `O=C(Cn1ccnc1[N+](=O)[O-])NCc1ccccc1` [Benznidazole, reference compound], the IC50 (L6, Benznidazole used as control, same assay, read-out: IC50 of control) was 0.5 ± 0.2 µg/mL (≈ 1.92 µM).
In the case of `CCC1CCC(n2c(=O)[nH]c3ncc(NC(C)=O)cc3c2=O)CC1` (stereo not shown) [Example 36, N-(3-((1s,4s)-4-ethylcyclohexyl)-2,4-dioxo-1,2,3,4-tetrahydropyrido[2,3-d]pyrimidin-6-yl)acetamide], the “Activity (IC50)” value under setting [2] stood at 0.110 µg/mL.
On to `CCC[C@H]1CC[C@H](n2c(=O)[nH]c3ccc(NC(C)=O)cc3c2=O)CC1` [Example 58, N-(2,4-Dioxo-3-((1s,4r)-4-propylcydohexyl)-1,2,3,4-tetrahydroquinazolin-6-yl)acetamide], for which the IC50 under setting [1] was 0.007 µg/mL (≈ 0.0204 µM).
For `CC(C)[C@H]1CC[C@H](n2c(=O)[nH]c3ccc(N)cc3c2=O)CC1` [25 (trans), 6-Amino-3-((1 r,4r)-4-isopropylcyclohexyl)quinazoline-2,4(1H,3H)-dione], under setting [2], the “Activity (IC50)” value is 0.008 µg/mL.
Regarding `CC[C@H]1CC[C@@H](n2c(=O)[nH]c3ccc(N)cc3c2=O)CC1` [24 (cis), 6-Amino-3-(cis-4-ethyl-cyclohexyl)-1H-quinazoline-2,4-dione], the IC50 under setting [1] was 0.096 µg/mL (≈ 0.334 µM).
`CC(=O)Nc1ccc2[nH]c(=O)n(CCCN3CCOCC3)c(=O)c2c1` [Example 40, N-(3-(3-Morpholinopropyl)-2,4-dioxo-1,2,3,4-tetrahydroquinazolin-6-yl)acetamide]: the IC50 under setting [1] is 55.3 µg/mL (≈ 160 µM).
For `CCCCCCn1c(=O)[nH]c2ccc(NC(C)=O)cc2c1=O` [Example 41, N-(3-hexyl-2,4-dioxo-1,2,3,4-tetrahydroquinazolin-6-yl)acetamide], the IC50 under setting [1] was 0.881 µg/mL (≈ 2.9 µM).
With `CCOC(=O)Nc1ccc2c(c1)c(=O)n(CCC1CCCCC1)c(=O)n2CC` [Example 13c, Ethyl (3-(2-cyclohexylethyl)-1-ethyl-2,4-dioxo-1,2,3,4-tetrahydroquinazolin-6-yl)carbamate], the IC50 under setting [1] turned out to be 5.23 µg/mL (≈ 13.5 µM).
On the same count and under the same terms, next, `O=C(Nc1ccc2[nH]c(=O)n(CCC3CCCCC3)c(=O)c2c1)c1ccccc1` [Example 14c, N-(3-(2-Cyclohexylethyl)-2,4-dioxo-1,2,3,4-tetrahydroquinazolin-6-yl)benzamide]: 5.88 µg/mL (≈ 15 µM).
On the same count and under the same terms, next, `CC(=O)Nc1ccc2[nH]c(=O)n([C@H]3CC[C@H](C(C)C)CC3)c(=O)c2c1` [Example 48, N-(3-((1r,4r)-4-Isopropylcyclohexyl)-2,4-dioxo-1,2,3,4-tetrahydroquinazolin-6-yl)acelamide]: 0.018 µg/mL (≈ 0.0524 µM).
Same read-out and setting: to `CC(=O)Nc1ccc2[nH]c(=O)n([C@H]3CC[C@H](C(F)(F)F)CC3)c(=O)c2c1` [Example 53, N-(2,4-dioxo-3-((1r,4r)-4-(trifluoromethyl)cyclohexyl)-1,2,3,4-tetrahydroquinazolin-6-yl)acetamide] belongs 0.13 µg/mL (≈ 0.352 µM); to `CCC1CCC(n2c(=O)[nH]c3ncc(NC(C)=O)cc3c2=O)CC1` (stereo not drawn) [Example 35, N-[3-(trans-4-ethyl-cyclohexyl)-2,4-dioxo-1,2,3,4-tetrahydro-pyrido[2,3-d]pyhmidin-6-yl]-acetamide], 0.1 µg/mL (≈ 0.303 µM).
As for `CC(C)(C)C1CCC(n2c(=O)[nH]c3ccc(-c4cccnc4)cc3c2=O)CC1` (stereo not shown) [Example 22, 3-(4-(tert-butyl)cyclohexyl)-6-(pyridin-3-yl)quinazoline-2,4(1H,3H)-dione], under setting [1], the IC50 was 2.63 µg/mL (≈ 6.97 µM).
Turning to `CC(C)(C)[C@H]1CC[C@H](n2c(=O)[nH]c3ccc(N)cc3c2=O)CC1` [23b (trans), 6-amino-3-(trans-4-tert-butyl-cyclohexyl)-1H-quinazoline-2,4-dione], the IC50 under setting [1] was found to be 0.03 µg/mL (≈ 0.0951 µM).
Consider `CC(=O)Nc1ccc2[nH]c(=O)n(Cc3cccc(C(F)(F)F)c3)c(=O)c2c1` [Example 43, N-(2,4-dioxo-3-(3-(trifluoromethyl)benzyl)-1,2,3,4-tetrahydroquinazolin-6-yl)acetamide], for which, under “L6, in Rattus norvegicus, 96 h, read-out: Activity (IC50)”, the IC50 came out at 0.804 µg/mL (≈ 2.13 µM).
On to `CC(=O)Nc1ccc2[nH]c(=O)n(CCCc3ccc(F)cc3)c(=O)c2c1` [Example 44, N-(3-(3-(4-fluorophenyl)propyl)-2,4-dioxo-1,2,3,4-tetrahydroquinazolin-6-yl)acetamide], for which the concentration for half-maximal inhibition (IC50) under setting [1] amounted to 0.943 µg/mL (≈ 2.65 µM).
Still for that read-out and setting: next, `CC[C@H]1CC[C@H](n2c(=O)[nH]c3ccc(NC(C)=O)cc3c2=O)CC1` [Example 56, N-(3-((1r,4r)-4-Ethylcyclohexyl)-2,4-dioxo-1,2,3,4-tetrahydroquinazolin-6-yl)acetamide]: 0.015 µg/mL (≈ 0.0455 µM).
Consider `CC(=O)Nc1ccc2[nH]c(=O)n(CCC(C)C)c(=O)c2c1` [Example 4, N-(3-Isopentyl-2,4-dioxo-1,2,3,4-tetrahydroquinazolin-6-yl)acetamide], for which the concentration for half-maximal inhibition (IC50) under setting [1] amounted to 2.81 µg/mL (≈ 9.71 µM).
Turning to `CC(C)(C)C1CCC(n2c(=O)[nH]c3ccc(N)cc3c2=O)CC1` (racemic) [23b (rac), 6-amino-3-(4-tert-butyl-cyclohexyl)-1H-quinazoline-2,4-dione], the IC50 under setting [1] was found to be 0.028 µg/mL (≈ 0.0888 µM).
Same read-out and setting: next, `CC(=O)Nc1ccc2[nH]c(=O)n([C@H]3CC[C@@H](C(C)C)CC3)c(=O)c2c1` [Example 47, N-(3-((1s,4s)-4-Isopropylcyclohexyl)-2,4-dioxo-1,2,3,4-tetrahydroquinazolin-6-yl)acetamide]: 0.087 µg/mL (≈ 0.253 µM); `CC(=O)Nc1ccc2[nH]c(=O)n(C3CCCCCC3)c(=O)c2c1` [Example 46, N-(3-Cycloheptyl-2,4-dioxo-1,2,3,4-tetrahydro-quinazolin-6-yl)acetamide]: 0.661 µg/mL (≈ 2.1 µM).
For `CC(=O)Nc1cnc2[nH]c(=O)n(CCC3CCCCC3)c(=O)c2c1` [Example 39, N-(3-(2-cyclohexylethyl)-2,4-dioxo-1,2,3,4-tetrahydropyrido[2,3-d]pyrimidin-6-yl)acetamide], the IC50 under setting [1] amounted to 0.755 µg/mL (≈ 2.29 µM).
Turning to `CCC[C@H]1CC[C@@H](n2c(=O)[nH]c3ccc(NC(C)=O)cc3c2=O)CC1` [Example 57, N-(2,4-Dioxo-3-((1r,4s)-4-propylcyclohexyl)-1,2,3,4-tetrahydroquinazolin-6-yl)acetamide], the IC50 under setting [1] stood at 0.06 µg/mL (≈ 0.175 µM).
In the case of `CC(=O)Nc1ccc2[nH]c(=O)n(CCC3CCCCC3)c(=O)c2c1` [Example 3, N-[3-(2-Cyclohexylethyl)-2,4-dioxo-1,2,3,4-tetrahydroquinazolin-6-yl]acetamide], the concentration for half-maximal inhibition (IC50) under setting [1] was determined as 0.162 µg/mL (≈ 0.492 µM).
On to `CC(=O)Nc1ccc2[nH]c(=O)n(C3CCC(C)CC3)c(=O)c2c1` (stereo not shown) [Example 59, N-(3-(4-methylcyclohexyl)-2,4-dioxo-1,2,3,4-tetrahydroquinazolin-6-yl)acetamide], for which the IC50 under setting [1] was 0.329 µg/mL (≈ 1.04 µM).
The same measure, in the same setting: to `COCCn1c(=O)[nH]c2ccc(NC(C)=O)cc2c1=O` [Example 6, N-(3-(2-methoxyethyl)-2,4-dioxo-1,2,3,4-tetrahydroquinazolin-6-yl)acetamide] belongs 9.62 µg/mL (≈ 34.7 µM); to `CC(=O)Nc1ccc2[nH]c(=O)n([C@H](C)C3CCCCC3)c(=O)c2c1` [Example 2, (R)—N-(3-(1-cyclohexylethyl)-2,4-dioxo-1,2,3,4-tetrahydroquinazolin-6-yl)acetamide], 0.724 µg/mL (≈ 2.2 µM).
